Assay results taken from patent US20100203531A1, “PREDICTING RESPONSIVENESS TO TEMOZOLOMIDE” (priority 2007, published 2010).

Assays:
Format in all cases: in vivo, human
GBM43 xenograft = assay: Orthotopic intracranial xenograft survival, GBM43
Experimental: (§1) In vivo sensitivity of GBM lines to TMZ: To address whether MGMT methylation or polypeptide expression status are predictive of TMZ responsiveness, the effects of TMZ therapy on survival were evaluated in the panel of xenografts using an orthotopic therapy model. Mice with established intracranial xenografts were treated with 66 mg/kg TMZ or placebo daily for 5 days by oral gavage. This TMZ dosing regimen provides the equivalent dose-exposure to TMZ as the standard adjuvant TMZ dosing regimen for GBM patients of 200 mg/m^2×5 days. All mice were followed until reaching a moribund state, and the relative prolongation of survival following TMZ treatment was calculated for each line relative to placebo treatment (Table 1). […] Further analysis of the relationship between TMZ responsiveness and MGMT methylation status in 17 xenograft lines was conducted by comparing the distribution of median survival prolongation results for methylation-positive and methylation-negative groups of xenografts. From this analysis, MGMT methylation was modestly associated with increased TMZ sensitivity (FIG. 2, p=0.039, two-sample rank sum test). In a similar analysis of MGMT polypeptide expression levels, high levels of MGMT polypeptide expression were invariably associated with relative TMZ resistance, and the absence of MGMT polypeptide expression was associated with significant TMZ sensitivity (r=−0.73, p=0.005). […] While p53, PTEN and EGFR function have been linked to TMZ sensitivity in some models, no correlation between genetic alterations of these genes and TMZ responsiveness was observed.
(§2) Orthotopic model: Therapy evaluations were conducted using an orthotopic tumor model as described elsewhere (Sarkaria et al., Clin Cancer Res, 12:2264-2271 (2006), Giannini et al., Neuro-Oncology, 7:164-176, (2005)). Athymic nude mice (NCI, Frederick, Md.) with established intracranial tumors were randomized into groups of 8 to 10 mice each and treatment was initiated 2 weeks before mice were expected to become moribund. TMZ was purchased from the Mayo Clinic Pharmacy, suspended in Ora-plus (Paddock Laboratories, Minneapolis. […] Mice were observed daily and euthanized when moribund.
(§3) Statistical analysis: Survival distributions were estimated using the Kaplan-Meier method. The log rank test was used to compare survival across treatment groups. All GBM experiments were pooled and Classification and Regression Tree analysis (CART) was used to identify which CpG sites in the MS-PCR assay (CpG sites 78-82, 86-89) were predictive of overall survival in TMZ treated mice. The two-sample rank sum test was used to compare relative differences in survival relative to MGMT MS-PCR status or CpG89 methylation status. Spearman's correlation coefficient was used to assess the association of relative median survival and protein expression levels of MGMT relative to 13-actin.

GBM6 xenograft = assay: Orthotopic intracranial xenograft survival, GBM6
Experimental: as §1, with “Mice with established intracranial xenografts were treated with 66 mg/kg TMZ or placebo daily for 5 days by oral gavage.” left out
as §2, §3

GBM46 xenograft = assay: Orthotopic intracranial xenograft survival, GBM46
Experimental: (§4) In vivo sensitivity of GBM lines to TMZ: To address whether MGMT methylation or polypeptide expression status are predictive of TMZ responsiveness, the effects of TMZ therapy on survival were evaluated in the panel of xenografts using an orthotopic therapy model. Mice with established intracranial xenografts were treated with 66 mg/kg TMZ or placebo daily for 5 days by oral gavage. This TMZ dosing regimen provides the equivalent dose-exposure to TMZ as the standard adjuvant TMZ dosing regimen for GBM patients of 200 mg/m^2×5 days. All mice were followed until reaching a moribund state, and the relative prolongation of survival following TMZ treatment was calculated for each line relative to placebo treatment (Table 1). […] Further analysis of the relationship between TMZ responsiveness and MGMT methylation status in 17 xenograft lines was conducted by comparing the distribution of median survival prolongation results for methylation-positive and methylation-negative groups of xenografts. From this analysis, MGMT methylation was modestly associated with increased TMZ sensitivity (FIG. 2, p=0.039, two-sample rank sum test). […]

GBM22 / GS22 xenograft = assay: Orthotopic intracranial xenograft survival, GBM22 (GS22)
Experimental: as §1
(§5) Orthotopic model: Therapy evaluations were conducted using an orthotopic tumor model as described elsewhere (Sarkaria et al., Clin Cancer Res, 12:2264-2271 (2006), Giannini et al., Neuro-Oncology, 7:164-176, (2005)). Athymic nude mice (NCI, Frederick, Md.) with established intracranial tumors were randomized into groups of 8 to 10 mice each and treatment was initiated 2 weeks before mice were expected to become moribund. TMZ was purchased from the Mayo Clinic Pharmacy, suspended in Ora-plus (Paddock Laboratories, Minneapolis. MN), and administered by oral gavage at 66 mg/kg for 5 days. Mice were observed daily and euthanized when moribund.
as §3, with “Spearman's correlation coefficient was used to assess the association of relative median survival and protein expression levels of MGMT relative to 13-actin.” left out

GBM38 xenograft = assay: Orthotopic intracranial xenograft survival, GBM38
Experimental: as §4

GBM34 xenograft = assay: Orthotopic intracranial xenograft survival, GBM34
Experimental: as §1, §5
as §3, with “Spearman's correlation coefficient was used to assess the association of relative median survival and protein expression levels of MGMT relative to 13-actin.” left out

**Q.** How did the “Survival Prolongation” value (GBM43 xenograft; GBM43, median survival relative to placebo, 66 mg/kg oral for 5 days (Table 3)) turn out when `Cn1nnc2c(C(N)=O)ncn2c1=O` [TMZ, Temozolomide] was run?
**A.** The value was 87%.

**Q.** And the Survival benefit (GBM43 xenograft; GBM43, prolongation of median survival relative to placebo, TMZ 66 mg/kg oral x5 days)?
**A.** The Survival benefit was 87%.

**Q.** What about the Survival benefit (GBM43 xenograft; GBM43 generation 6, TMZ 120 mg/kg for 5 days, intracranial) of the same compound?
**A.** Its Survival benefit is 104%.

**Q.** What about the Survival benefit (GBM43 xenograft; GBM43 generation 10, TMZ 66 mg/kg for 5 days, intracranial) of the same compound?
**A.** Its Survival benefit is 83%.

**Q.** What about the TMZ median survival (GBM43 xenograft; GBM43 intracranial xenograft, nude mice, TMZ 66 mg/kg oral daily x5 days) of the same compound?
**A.** Its TMZ median survival is 43.

**Q.** And the Temozolomide median survival (GBM43 xenograft; GBM43 intracranial, athymic nude mice, 66 mg/kg oral gavage for 5 days (Table 3))?
**A.** Its Temozolomide median survival is 43.

**Q.** What about the “Survival Prolongation” value (GBM6 xenograft; GBM6, median survival relative to placebo, 66 mg/kg oral for 5 days (Table 3)) of the same compound?
**A.** Its value is 37%.

**Q.** What about the Survival benefit (GBM6 xenograft; GBM6, prolongation of median survival relative to placebo, TMZ 66 mg/kg oral x5 days) of the same compound?
**A.** The Survival benefit was 37%.

**Q.** And the Survival benefit (GBM6 xenograft; GBM6 generation 20, TMZ 120 mg/kg for 5 days, intracranial)?
**A.** The Survival benefit was 67%.

**Q.** And the Survival benefit (GBM6 xenograft; GBM6 generation 24, TMZ 66 mg/kg for 5 days, intracranial)?
**A.** The Survival benefit was 21%.

**Q.** What about the TMZ median survival (GBM6 xenograft; GBM6 intracranial xenograft, nude mice, TMZ 66 mg/kg oral daily x5 days) of the same compound?
**A.** Its TMZ median survival is 56.

**Q.** What about the Temozolomide median survival (GBM6 xenograft; GBM6 intracranial, athymic nude mice, 66 mg/kg oral gavage for 5 days (Table 3)) of the same compound?
**A.** The Temozolomide median survival was 56.

**Q.** What about the Survival benefit (GBM46 xenograft; GBM46, prolongation of median survival relative to placebo, TMZ 66 mg/kg oral x5 days) of the same compound?
**A.** The Survival benefit was 0%.

**Q.** And the TMZ median survival (GBM46 xenograft; GBM46 intracranial xenograft, nude mice, TMZ 66 mg/kg oral daily x5 days)?
**A.** The TMZ median survival was 50.

**Q.** What about the Survival benefit (GBM22 / GS22 xenograft; GBM22, prolongation of median survival relative to placebo, TMZ 66 mg/kg oral x5 days) of the same compound?
**A.** Its Survival benefit is 260%.

**Q.** And the TMZ median survival (GBM22 / GS22 xenograft; GBM22 intracranial xenograft, nude mice, TMZ 66 mg/kg oral daily x5 days)?
**A.** Its TMZ median survival is 124.

**Q.** What about the “Survival Prolongation” value (GBM22 / GS22 xenograft; GS22, median survival relative to placebo, 66 mg/kg oral for 5 days (Table 3)) of the same compound?
**A.** The value was 260%.

**Q.** What about the Temozolomide median survival (GBM22 / GS22 xenograft; GS22 intracranial, athymic nude mice, 66 mg/kg oral gavage for 5 days (Table 3)) of the same compound?
**A.** The Temozolomide median survival was 155.

**Q.** What about the Survival benefit (GBM38 xenograft; GBM38, prolongation of median survival relative to placebo, TMZ 66 mg/kg oral x5 days) of the same compound?
**A.** Its Survival benefit is 45%.

**Q.** What about the TMZ median survival (GBM38 xenograft; GBM38 intracranial xenograft, nude mice, TMZ 66 mg/kg oral daily x5 days) of the same compound?
**A.** Its TMZ median survival is 80.

**Q.** And the “Survival Prolongation” value (GBM34 xenograft; GBM34, median survival relative to placebo, 66 mg/kg oral for 5 days (Table 3))?
**A.** The value was 294%.

**Q.** And the Survival benefit (GBM34 xenograft; GBM34, prolongation of median survival relative to placebo, TMZ 66 mg/kg oral x5 days)?
**A.** Its Survival benefit is 294%.

**Q.** What about the TMZ median survival (GBM34 xenograft; GBM34 intracranial xenograft, nude mice, TMZ 66 mg/kg oral daily x5 days) of the same compound?
**A.** Its TMZ median survival is 351.

**Q.** What about the Temozolomide median survival (GBM34 xenograft; GBM34 intracranial, athymic nude mice, 66 mg/kg oral gavage for 5 days (Table 3)) of the same compound?
**A.** Its Temozolomide median survival is 351.
